The structures appear in SMILES notation.

The first experiment deals with T1, PYL5 (Arabidopsis thaliana, UniProt Q9FLB1).
T1 construct: 6X-His; made in house; host or cells: E. coli BL21[DE3]pLysS
T1 sequence (Q9FLB1 1-203): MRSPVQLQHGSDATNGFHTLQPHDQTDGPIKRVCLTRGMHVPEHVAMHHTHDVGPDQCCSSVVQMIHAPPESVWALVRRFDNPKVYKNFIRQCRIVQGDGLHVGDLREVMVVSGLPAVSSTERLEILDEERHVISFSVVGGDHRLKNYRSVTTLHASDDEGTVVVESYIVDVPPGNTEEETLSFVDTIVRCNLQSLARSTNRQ
T1 sequence (Q9CAJ0 23-511 partner): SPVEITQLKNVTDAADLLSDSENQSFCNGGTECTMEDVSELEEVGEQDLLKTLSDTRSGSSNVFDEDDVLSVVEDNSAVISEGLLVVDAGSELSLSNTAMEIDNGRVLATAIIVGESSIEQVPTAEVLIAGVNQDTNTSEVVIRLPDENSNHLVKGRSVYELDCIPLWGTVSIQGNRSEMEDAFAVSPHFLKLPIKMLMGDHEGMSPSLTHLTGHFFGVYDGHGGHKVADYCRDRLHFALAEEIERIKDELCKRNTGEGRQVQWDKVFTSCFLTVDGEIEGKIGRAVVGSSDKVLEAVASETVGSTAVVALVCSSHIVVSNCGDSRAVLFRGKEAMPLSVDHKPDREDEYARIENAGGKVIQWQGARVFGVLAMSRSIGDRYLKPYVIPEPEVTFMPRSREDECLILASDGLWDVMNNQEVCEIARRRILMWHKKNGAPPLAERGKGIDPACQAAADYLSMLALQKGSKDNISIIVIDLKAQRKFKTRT
Briefly: receptor-mediated PP2C (HAB1) inhibition in vitro assay. The class given is biochemical. As to conditions: compound at 25 μM; control without agonist = 100%. On the procedure: (§1) A family of 62 structurally related N-acyl sulfonamides (Tables I-V) were tested for ABA agonist activity using multiple receptor-mediated PP2C inhibition in vitro assays (Park et al., 2009). […] The constructs utilized for protein expression have been previously described (Okamoto et al. 2013). For constructs encoding 6X-His-fusion proteins (all receptors except PYL11), the coding sequences were of the receptors were cloned in the vector pET28, expressed in BL21[DE3]pLysS E. coli host cells at 18° C. overnight, and subsequently purified from sonicated lysates using Ni-NTA agarose (Qiagen, USA), according to the manufacturer's instructions. PYL11 was constructed as a maltose binding protein fusion in the vector pMAL-c, expressed in BL21┌DE3┐pLysS host cells and purified using amylose resin (New England Biolabs) as described by the manufacturer. Recombinant GST-HAB1 was expressed and purified as described previously (Park et al., 2009). PP2C activity assays were conducted using the fluorogenic phosphatase substrate 4-methylumbelliferyl-phosphate. Recombinant receptors and HAB1 were used to examine ligand-induced PP2C inactivation in response to multiple test compounds. Enzyme inhibition assays were conducted using the following assay conditions: 50 nM GST-PP2C, 100 mM Tris-OAc (pH 7.9), 100 mM NaCl, 1 mM MnCl2, 1% β-mercaptoethanol. […] Because of this, the ratio of each receptor used in the PP2C-inhibitions assays was established empirically as the minimum fold-excess of receptor required to elicit maximal PP2C inhibition at a saturating ABA concentration (10 μM).
(§2) Based on this criterion, we used a ratio of 2:1 receptor in the assays described herein.
(§3) Using the above assay conditions, compounds were tested at 25 μM for agonist activity on PYL4, PYL5, PYL8 and PYL9. […] Consequently, a subset of the compounds was tested at multiple concentrations against 11 receptors so that IC50 values and receptor selectivity profiles could be examined. […] Thus, the N-acylsulfonamide agonists disclosed are selective for monomeric receptors.
(§4) Additional compounds were tested for biological activity following the procedures of Example 1 with minor modifications.
(§5) For these in vitro receptor assays, the compounds listed were tested in in vitro PP2C inhibition assays with 50 uM of the test compound except for ABA (10 uM). IC50s were calculated from dose curves, but only for selected compounds.
Molecule `N#Cc1ccc(CS(=O)(=O)NC(=O)C2(c3ccc(Br)cc3)CCC2)cc1` [Compound 31] returned a PP2C Activity (25 μm) PYL5 of 77%.

Consider `N#Cc1ccc(CS(=O)(=O)NC(=O)C2(c3ccccc3F)CC2)cc1` [Compound 47], for which the PP2C Activity (25 μm) PYL5 was 28%.

`N#Cc1ccc(CS(=O)(=O)NC(=O)C2(c3ccc(C(F)(F)F)cc3)CC2)cc1` [Compound 45] displayed a PP2C Activity (25 μm) PYL5 of 30%.

Regarding `CC(C)(C(=O)NS(=O)(=O)Cc1ccc2cccnc2c1)c1ccccc1` [Compound 55], the PP2C Activity (25 μm) PYL5 stood at 95%.

As to `Cc1cc(C)cc(C2(C(=O)NS(=O)(=O)Cc3ccc(C#N)cc3)CC2)c1` [Compound 36], the PP2C Activity (25 μm) PYL5 stood at 34%.

`CCc1ccc(C(C)(C)C(=O)NS(=O)(=O)Cc2ccc(C#N)cc2)cc1` [Compound 20] registered a PP2C Activity (25 μm) PYL5 of 88%.

Molecule `CC(C)(C(=O)NS(=O)(=O)Cc1ccc(C#N)cc1)c1ccc(C(F)(F)F)cc1` [Compound 11] came in with a PP2C Activity (25 μm) PYL5 of 44%.

As to `N#Cc1ccc(CS(=O)(=O)NC(=O)C2(c3cccc(F)c3)CCOCC2)cc1` [Compound 57], the PP2C Activity (25 μm) PYL5 amounted to 100%.

For `O=C(NS(=O)(=O)Cc1cccc2cccnc12)C1(c2ccccc2)CC1` [Compound 62], the remaining activity at 25 µM worked out at 103%.

The target of a further experiment is T2, PYL4 (Arabidopsis thaliana, UniProt O80920).
T2 construct: 6X-His; made in house; host or cells: E. coli BL21[DE3]pLysS
T2 sequence (O80920 1-207): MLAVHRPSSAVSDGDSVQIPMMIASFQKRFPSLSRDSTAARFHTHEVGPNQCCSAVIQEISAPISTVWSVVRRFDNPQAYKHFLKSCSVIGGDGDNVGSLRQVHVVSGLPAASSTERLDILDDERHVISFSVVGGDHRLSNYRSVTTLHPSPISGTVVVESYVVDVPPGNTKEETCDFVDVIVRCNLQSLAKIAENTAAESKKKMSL
T2 sequence (Q9CAJ0 23-511 partner): T1 sequence (Q9CAJ0 23-511 partner)
The experiment is described as above. As to conditions: compound at 25 μM; control without agonist = 100%. The class given is biochemical. The method, then: as §1, §2, §3, §4, §5
With `N#Cc1ccc(CS(=O)(=O)NC(=O)C2(c3ccc(Br)cc3)CCC2)cc1` [Compound 31], the PP2C Activity (25 μm) PYL4 was determined as 97%.

With `N#Cc1ccc(CS(=O)(=O)NC(=O)C2(c3ccccc3F)CC2)cc1` [Compound 47], the PP2C Activity (25 μm) PYL4 came to 95%.

Molecule `N#Cc1ccc(CS(=O)(=O)NC(=O)C2(c3ccc(C(F)(F)F)cc3)CC2)cc1` [Compound 45] had a PP2C Activity (25 μm) PYL4 of 93%.

The molecule `CC(C)(C(=O)NS(=O)(=O)Cc1ccc2cccnc2c1)c1ccccc1` [Compound 55] gave a PP2C Activity (25 μm) PYL4 of 96%.

For `Cc1cc(C)cc(C2(C(=O)NS(=O)(=O)Cc3ccc(C#N)cc3)CC2)c1` [Compound 36], the PP2C Activity (25 μm) PYL4 was 91%.

Regarding `CCc1ccc(C(C)(C)C(=O)NS(=O)(=O)Cc2ccc(C#N)cc2)cc1` [Compound 20], the PP2C Activity (25 μm) PYL4 was 95%.

For the molecule `CC(C)(C(=O)NS(=O)(=O)Cc1ccc(C#N)cc1)c1ccc(C(F)(F)F)cc1` [Compound 11], the PP2C Activity (25 μm) PYL4 turned out to be 93%.

Molecule `N#Cc1ccc(CS(=O)(=O)NC(=O)C2(c3cccc(F)c3)CCOCC2)cc1` [Compound 57] yielded a PP2C Activity (25 μm) PYL4 of 91%.

Regarding `O=C(NS(=O)(=O)Cc1cccc2cccnc12)C1(c2ccccc2)CC1` [Compound 62], the remaining activity at 25 µM worked out at 98%.

A further experiment has as its target T3, PYL8 (Arabidopsis thaliana, UniProt Q9FGM1).
T3 construct: 6X-His; made in house; host or cells: E. coli BL21[DE3]pLysS
T3 sequence (Q9FGM1 1-188): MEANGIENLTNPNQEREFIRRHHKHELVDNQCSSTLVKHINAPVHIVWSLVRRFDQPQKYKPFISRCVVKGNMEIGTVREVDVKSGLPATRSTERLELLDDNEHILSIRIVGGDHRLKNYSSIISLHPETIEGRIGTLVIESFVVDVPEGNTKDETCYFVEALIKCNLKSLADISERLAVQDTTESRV
T3 sequence (Q9CAJ0 23-511 partner): T1 sequence (Q9CAJ0 23-511 partner)
The description is as above. In kind it is biochemical. As to conditions: compound at 25 μM; control without agonist = 100%. The method, then:
as §1, §2, §3, §4, §5
`N#Cc1ccc(CS(=O)(=O)NC(=O)C2(c3ccc(Br)cc3)CCC2)cc1` [Compound 31] showed a PP2C Activity (25 μm) PYL8 of 80%.

With `N#Cc1ccc(CS(=O)(=O)NC(=O)C2(c3ccccc3F)CC2)cc1` [Compound 47], the PP2C Activity (25 μm) PYL8 was found to be 86%.

`N#Cc1ccc(CS(=O)(=O)NC(=O)C2(c3ccc(C(F)(F)F)cc3)CC2)cc1` [Compound 45] returned a PP2C Activity (25 μm) PYL8 of 74%.

For `CC(C)(C(=O)NS(=O)(=O)Cc1ccc2cccnc2c1)c1ccccc1` [Compound 55], the PP2C Activity (25 μm) PYL8 was 72%.

`Cc1cc(C)cc(C2(C(=O)NS(=O)(=O)Cc3ccc(C#N)cc3)CC2)c1` [Compound 36] displayed a PP2C Activity (25 μm) PYL8 of 98%.

For `CCc1ccc(C(C)(C)C(=O)NS(=O)(=O)Cc2ccc(C#N)cc2)cc1` [Compound 20], the PP2C Activity (25 μm) PYL8 is 104%.

`CC(C)(C(=O)NS(=O)(=O)Cc1ccc(C#N)cc1)c1ccc(C(F)(F)F)cc1` [Compound 11]: the PP2C Activity (25 μm) PYL8 stood at 62%.

As to `N#Cc1ccc(CS(=O)(=O)NC(=O)C2(c3cccc(F)c3)CCOCC2)cc1` [Compound 57], the PP2C Activity (25 μm) PYL8 stood at 56%.

On to `O=C(NS(=O)(=O)Cc1cccc2cccnc12)C1(c2ccccc2)CC1` [Compound 62], for which the remaining activity at 25 µM worked out at 100%.

The target in a further experiment is T4, PYL9 (Arabidopsis thaliana, UniProt Q84MC7).
T4 construct: 6X-His; made in house; host or cells: E. coli BL21[DE3]pLysS
T4 sequence (Q84MC7 1-187): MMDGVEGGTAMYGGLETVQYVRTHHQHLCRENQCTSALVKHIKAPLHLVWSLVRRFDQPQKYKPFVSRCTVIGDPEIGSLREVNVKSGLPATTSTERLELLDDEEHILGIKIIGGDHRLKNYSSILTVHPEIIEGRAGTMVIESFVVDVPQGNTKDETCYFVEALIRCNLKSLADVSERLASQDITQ
T4 sequence (Q9CAJ0 23-511 partner): T1 sequence (Q9CAJ0 23-511 partner)
The experiment is described as above. The class given is biochemical. As to conditions: compound at 25 μM; control without agonist = 100%. The method, then: as §1, §2, §3, §4, §5
In turn, `N#Cc1ccc(CS(=O)(=O)NC(=O)C2(c3ccc(Br)cc3)CCC2)cc1` [Compound 31] had a PP2C Activity (25 μm) PYL9 of 74%.

In turn, `N#Cc1ccc(CS(=O)(=O)NC(=O)C2(c3ccccc3F)CC2)cc1` [Compound 47] gave a PP2C Activity (25 μm) PYL9 of 75%.

For `N#Cc1ccc(CS(=O)(=O)NC(=O)C2(c3ccc(C(F)(F)F)cc3)CC2)cc1` [Compound 45], the PP2C Activity (25 μm) PYL9 was found to be 53%.

`CC(C)(C(=O)NS(=O)(=O)Cc1ccc2cccnc2c1)c1ccccc1` [Compound 55] registered a PP2C Activity (25 μm) PYL9 of 49%.

`Cc1cc(C)cc(C2(C(=O)NS(=O)(=O)Cc3ccc(C#N)cc3)CC2)c1` [Compound 36] registered a PP2C Activity (25 μm) PYL9 of 94%.

`CCc1ccc(C(C)(C)C(=O)NS(=O)(=O)Cc2ccc(C#N)cc2)cc1` [Compound 20] yielded a PP2C Activity (25 μm) PYL9 of 98%.

For the molecule `CC(C)(C(=O)NS(=O)(=O)Cc1ccc(C#N)cc1)c1ccc(C(F)(F)F)cc1` [Compound 11], the PP2C Activity (25 μm) PYL9 was 58%.

`N#Cc1ccc(CS(=O)(=O)NC(=O)C2(c3cccc(F)c3)CCOCC2)cc1` [Compound 57] had a PP2C Activity (25 μm) PYL9 of 39%.

In the case of `O=C(NS(=O)(=O)Cc1cccc2cccnc12)C1(c2ccccc2)CC1` [Compound 62], the remaining activity at 25 µM was 100%.

(Values after patent publication US10757937B2, “Sulfonamides that activate ABA receptors” (The Regents of the University of California, priority 2014, dated 2020).)
